Experimental data: patent US20140271534A1, “COMPOUNDS, COMPOSITIONS, AND METHODS FOR REPELLING AN INSECT FROM AN AREA, ARTICLE, AND/OR STRUCTURE” (BAYER CROPSCIENCE LP, priority 2013, published 2014)

What was measured:
[1] = stability test of Poncho combined with Eugenol, clothianidin content by HPLC; format: physicochemical; details: in Poncho combined with Eugenol; up to 54° C. for seven days
Protocol: Table 4 describes a stability test with a combination of Eugenol and Poncho evaluated at room temperature, 40° C., and 54° C. at zero time, 3 days, and 7 days as confirmed by high performance liquid chromatography (HPLC).

[2] = stability test of Poncho 600 combined with α-terpineol, clothianidin content by HPLC; format: physicochemical; details: in Poncho combined with alpha-terpineol; up to 54° C. for eight days
Protocol: Table 5 describes a stability test with a combination of α-terpineol and Poncho 600 evaluated at room temperature, 40° C., and 54° C. at zero time, 2 days, and 8 days as confirmed by HPLC.

honeybees = experiment: honeybee repulsion experiment, feeding stations with 50% sucrose; format: in vivo; details: for repellency to honeybees at 24 hours: 2% by weight in 50% sucrose feeder
Protocol: FIG. 1 describes the feeding station arrangement (A and B) for the honeybee repulsion experiments described herein. As set forth in FIG. 1, panel (A) sets forth the bee cage positions on the left portion of panel (A) with the randomized feeding station positions on the right portion of panel (A). Panel (B) sets forth an alignment of the randomized feeding station positions with a distance of two meters between feeding stations. A total of eight feeding stations were evaluated at a ten meter distance in front of the respective bee hives. The feeding stations were placed two meters apart from one another.
Honeybees were trained to deep feeders (eight positions), each containing a 50% sucrose solution for one day. After the honeybees were trained to each feeder, the 50% sucrose feeder at randomized positions 1-8 was replaced with a shallow feeder containing a combination of repelling compounds and a 50% sucrose solution according to Table 3. In accordance with FIGS. 5 and 6, 2% by weight of Camphor oil (T4), Ajowan oil (T5), Camphor powder (T6), Rosemary oil (T7), and 2-Decanone (T8) in combination with a 50% sucrose treatment were added to feeders on day two.
Table 3 describes active agents evaluated for bee repulsion and their randomized feeding station positions. As described in Table 3, T1 (control), T2 (control), T3 (control), T4 (Camphor oil), T5 (Ajowan oil), T6 (Camphor powder), T7 (Rosemary oil), and T8 (2-Decanone).
FIG. 5 evaluates the number of bees visiting a respective feed station over a time interval. FIG. 6 sets forth the mean number of honeybees visiting feeding station over a period of four hours.

Row | Structure (SMILES) | chemical stability of clothianidin content [1] | chemical stability of clothianidin content [2] | repellency to honeybees at 24 hours (honeybees) | repellency to honeybees at 24 hours (honeybees; listed as 2-decanone) | repellency to honeybees over the full 4 hour assessment period (honeybees; in 50% sucrose feeder, 4 hour assessment period)
1 | CN/C(=N\[N+](=O)[O-])NCc1cnc(Cl)s1 [clothianidin] | exhibited chemical stability | exhibited chemical stability | – | – | –
2 | CCCCCCCCC(C)=O [Compound 2-Decanone, 2-decanone] | – | – | exhibited repellency | still repellent | highly repellent
